Laboratory results reported in patent publication US8658801B2, “Pesticides containing a bicyclic bisamide structure” (Syngenta Crop Protection, LLC, priority 2006, dated 2014).

Legend:
[1] = tested on: Diabrotica balteata (Corn Root Worm); experiment: Example B4: Diabrotica balteata, larvicide, feeding/residual contact, preventive; assay type: in vivo; settings: 120 h, 5 days incubation, L2 larvae
Experimental: Diabrotica balteata (Corn Root Worm)
(§1) (Larvicide, Feeding/Residual Contact Activity, Preventive)
After drying, the MTP's are infested with larvae (L2)(6-10 per well). After an incubation period of 5 days, samples are checked for larval mortality, antifeedant and growth regulation. In this test, compounds listed in Table P above show good activity. In particular compounds P.1, P.2, P.5, P.6, P.10, P.11, P.12, P.13, P.15, P.16, P.17, P.18, P.19, P.24, P.25, P.27, P.28, P.29, P.30, P.31, P.33, P.34, P.35, P.37, P.38, P.39, P.42, P.43, P.44, P.45, P.46, P.47, P.48, P.49, P.50, P.52, P.53, P.65, P.67, P.68, P.69, P.70, P.71, P.72, P.75, P.78, and P.79 show an activity of over 80% at a concentration of 400 ppm.

[2] = tested on: Myzus persicae (Green Peach Aphid); experiment: Example B6: activity against Myzus persicae, mixed population, systemic/feeding, curative (pea seedling roots); settings: 144 h, read-out: activity
[3] = tested on: Plutella xylostella (Diamond Back Moth); experiment: Example B3: Plutella xylostella, larvicide, feeding/residual contact, preventive (artificial diet MTP); assay type: in vivo; settings: 120 h, 5 days incubation, L2 larvae
Experimental: Plutella xylostella (Diamond Back Moth)
as §1
24-well microtiter plate (MTP) with artificial diet is treated with test solutions by pipetting. After drying, the MTP's are infested with larvae (L2)(10-15 per well). After an incubation period of 5 days, samples are checked for larval mortality, antifeedant and growth regulation. In this test, compounds listed in Table P above show good activity. In particular compounds P.1, P.2, P.3, P.4, P.5, P.6, P.7, P.9, P.10, P.11, P.12, P.13, P.15, P.16, P.17, P.18, P.19, P.20, P.21, P.22, P.23, P.25, P.26, P.27, P.28, P.29, P.30, P.31, P.32, P.33, P.34, P.35, P.36, P.37, P.38, P.39, P.40, P.41, P.42, P.43, P.44, P.46, P.47, P.48, P.49, P.50, P.51, P.52, P.53, P.54, P.55, P.56, P.57, P.58, P.59, P.60, P.61, P.63, P.64, P.67, P.68, P.69 P.70, P.72, P.74, P.77, P78 and P.79 show an activity of over 80% at a concentration of 400 ppm.

[4] = tested on: Spodoptera littoralis (Egyptian Cotton Leafworm); experiment: Example B1: activity against Spodoptera littoralis, larvicide, feeding/residual contact, preventive (cotton leaf discs); assay type: in vivo; settings: foliar, 72 h, 3 days after treatment, L1 larvae
Excerpt: Activity Against Spodoptera littoralis (Egyptian Cotton Leafworm)
as §1
The samples are checked for mortality, repellent effect, feeding behaviour, and growth regulation 3 days after treatment. In this test, compounds listed in Table P above show good activity. In particular compounds P.1, P.2, P.3, P.4, P.5, P.6, P.7, P.9, P.10, P.11, P.12, P.13, P.15, P.16, P.17, P.18, P.19, P.20, P.21, P.22, P.23, P.24, P.25, P.26, P.27, P.28, P.29, P.30, P.31, P.32, P.33, P.34, P.35, P.36, P.37, P.38, P.39, P.40, P.41, P.42, P.43, P.44, P.45, P.46, P.47, P.48, P.49, P.50, P.51, P.52, P.53, P.54, P.55, P.56, P.57, P.58, P.59, P.60, P.61, P.63, P.64, P.67, P.68 and P.70 show an activity of over 80% at a concentration of 400 ppm.

[5] = tested on: Frankliniella occidentalis (Western Flower Thrips); experiment: Example B9: activity against Frankliniella occidentalis (bean leaf discs or bean plants); assay type: in vivo; settings: foliar, 6 days (leaf discs) or 14 days (plants) after infestation
Experimental: Activity Against Frankliniella occidentalis (Western Flower Thrips)
Bean leaf discs on agar in petri dishes or bean plants in a spray chamber are treated with diluted test solutions. After drying leaf discs are cut and placed in plastic cups on the surface of an agar layer and infested with mixed population. 6 days (leaf discs) or 14 days (plants) after the infestation, samples are checked for reduction of treated population and compared to the non treated population.

[6] = tested on: Heliothis virescens (Tobacco Budworm); experiment: Example B2: activity against Heliothis virescens, ovo-larvicide, feeding/contact, curative; assay type: in vivo; settings: 96 h, 4 days incubation, eggs 0-24 h old
Experimental: Activity Against Heliothis virescens (Tobacco Budworm)
(Ovo-Larvicide, Feeding/Contact Activity, Curative)
Eggs (0-24 h old) are placed in 24-well microtiter plate on artificial diet and treated with test solutions by pipetting. After an incubation period of 4 days, samples are checked for egg mortality, larval mortality, and growth regulation.

[7] = tested on: Myzus persicae (Green Peach Aphid); experiment: Example B5: activity against Myzus persicae, mixed population, feeding/residual contact, preventive (sunflower leaf discs); settings: foliar, 144 h, read-out: activity
[8] = tested on: Thrips tabaci (Onion Thrips); experiment: Example B7: activity against Thrips tabaci, mixed population, feeding/residual contact, preventive; settings: 144 h, read-out: activity

Measured: pest or weed control at 400 ppm

CC(C)(CS(C)(=O)=O)NC(=O)c1c(NC(=O)c2cc(C(F)(F)F)nn2-c2ncccc2Cl)c(Cl)cc2cn[nH]c12 [P.15]
not listed: [8]
> 80%: all other assays above

CC(C)NC(=O)c1c(NC(=O)c2cc(C(F)(F)F)nn2-c2ncccc2Cl)c(Br)cc2cn[nH]c12 [P.16]
not listed: [2] | [5]
> 80%: all other assays above

CNC(=O)c1c(NC(=O)c2cc(C(F)(F)F)nn2-c2ncccc2Cl)c(C)cc2nc(C)ccc12 [P.22]
> 80%: [3] | [4] | [5] | [6]

CC(C)NC(=O)c1c(NC(=O)c2cc(C(F)(F)F)nn2-c2ncccc2Cl)c(C#N)cc2cn[nH]c12 [P.25]
not listed: [2] | [5]
> 80%: all other assays above

COc1cc(C(=O)Nc2c(Br)cc3cn[nH]c3c2C(=O)NCC2CC2)n(-c2ncccc2Cl)n1 [P.36]
> 80%: [2] | [3] | [4] | [6] | [7]

CCNC(=O)c1c(NC(=O)c2cc(OC)nn2-c2ncccc2Cl)c(Br)cc2cn[nH]c12 [P.50]
not listed: [5]
> 80%: all other assays above

COc1cc(C(=O)Nc2c(Br)cc3cn[nH]c3c2C(=O)NC(C)(C)CSC)n(-c2ncccc2Cl)n1 [P.51]
not listed: [1] | [5]
> 80%: all other assays above

COc1cc(C(=O)Nc2c(C#N)cc3cn[nH]c3c2C(=O)NC2(C3CC3)CC2)n(-c2ncccc2Cl)n1 [P.53]
not listed: [5]
> 80%: all other assays above

COc1cc(C(=O)Nc2c(C#N)cc3cn[nH]c3c2C(=O)NC(C)C)n(-c2ncccc2Cl)n1 [P.55]
not listed: [1] | [5]
> 80%: all other assays above

COc1cc(C(=O)Nc2c(Cl)cc3cn[nH]c3c2C(=O)NC(C)(C)CSC)n(-c2ncccc2Cl)n1 [P.57]
not listed: [1] | [5]
> 80%: all other assays above

CCNC(=O)c1c(NC(=O)c2cc(OC)nn2-c2ncccc2Cl)c(Cl)cc2cn[nH]c12 [P.58]
not listed: [1] | [5]
> 80%: all other assays above

COc1cc(C(=O)Nc2c(Cl)cc3cn[nH]c3c2C(=O)NC2(C)CSC2)n(-c2ncccc2Cl)n1 [P.59, 5-chloro-6-{[2-(3-chloro-pyridin-2-yl)-5-methoxy-2H-pyrazole-3-carbonyl]-amino}-1H-indazole-7-carboxylic acid (3-methyl-thietan-3-yl)-amide]
not listed: [1] | [5]
> 80%: all other assays above

Cc1cc2cn[nH]c2c(C(=O)NC(C)C)c1NC(=O)c1cc(Br)nn1-c1ncccc1Cl [P.65, 6-{[5-bromo-2-(3-chloro-pyridin-2-yl)-2H-pyrazole-3-carbonyl]-amino}-5-methyl-1H-indazole-7-carboxylic acid isopropylamide]
> 80%: [1] | [2] | [8]

CC(C)NC(=O)c1c(NC(=O)c2cc(C(F)(F)F)nn2-c2ncccc2Cl)c(Cl)cc2c(Br)n[nH]c12 [P.67]
> 80%: [1] | [3] | [8] | [4] | [6]

O=C(NC1(C2CC2)CC1)c1c(NC(=O)c2cc(C(F)(F)F)nn2-c2ncccc2Cl)c(Cl)cc2c(Br)n[nH]c12 [P.68]
> 80%: [1] | [3] | [8] | [4] | [6]

Cc1cc2cn[nH]c2c(C(=O)NC2(C3CC3)CC2)c1NC(=O)c1cc(Br)nn1-c1ncccc1Cl [P.71, 6-{[5-bromo-2-(3-chloro-pyridin-2-yl)-2H-pyrazole-3-carbonyl]-amino}-5-methyl-1H-indazole-7-carboxylic acid bicyclopropyl-1-ylamide]
> 80%: [1] | [2] | [8] | [6]
